# Where two headings read alike, the source gives them in different places.
# Assays:
# [1] = system: rat glioma C6 cancer cells; assay: MTT assay on rat glioma C6 cells; type: cell-based; conditions: 5-80 μM, read-out: The inhibitory effect IC50 on rat glioma C6 cancer cells
# Description: The Antiproliferative Activities of Arene Ruthenium (II) Complexes Against Rat Glioma C6 Cancer Cells.
# (§1) The antiproliferative effects of arene ruthenium (II) complex against rat glioma C6 cells were evaluated by MTT assay. Discarding the medium of the rat glioma C6 cells in exponential growth phase, washing the cells twice with phosphate-buffered saline (PBS), dissociating into single cells by digesting with 1 mL trypsin, counting the cells. Adding fresh medium to dilute cell population to 1.5×10^4 cells/mL, inoculating into 96-well tissue culture plates (3×10^3 cells per well) with 200 μL/well in 6 wells of each group, repeating twice, and then culturing at 37° C. in 5% CO2 saturated humidity incubator for 16 h. After adherent cells are apparent, removing the supernatant carefully and adding DMEM media. Meanwhile, the cells were incubated with different concentrations of arene ruthenium (II) complexes with a final concentration of 5, 10, 20, 40 and 80 μM respectively, and maintain the total volume at 200 μL/well. Thereafter, the cells were cultured for 72 h. At the end of incubation, 20 μL/well of MTT solution (5 mg/mL) was added and incubated for 4 h. Removing the supernatant carefully and replaced with 150 μL/well of DMSO and oscillated for 10 min to ensure complete dissolution of the formazan crystallization. The absorbance values were measured at 490 nm using a microplate reader. Cell viability was calculated according to the following formula: Cell viability (%)=A490 nm (cells in experimental group)/A490 nm (cells in control group)×100%
# According to the values of cell viability, calculating the inhibitory activities (IC50) of the target complex against rat glioma C6 cells.
# [2] = system: MDA-MB-231 breast cancer cells; assay: MTT assay on MDA-MB-231 breast cancer cells; type: cell-based; conditions: 72 h, 5-80 μM, read-out: The inhibitory effect IC50 on MDA-MB-231 breast cancer cells
# Description: The Anti-Invasion Activities of Arene Ruthenium (II) Complexes Against MDA-MB-231 Breast Cancer Cells.
# The anti-invasion activities of arene ruthenium (II) complexes against MDA-MB-231 breast cancer cells was evaluated by MTT assay. Discarding the medium of the MDA-MB-231 breast cancer cells in exponential growth phase, washing the cells twice with phosphate-buffered saline (PBS), dissociating into single cells by digesting with 1 mL trypsin, counting the cells. Adding fresh medium to dilute cell population to 1.5×10^4 cells/mL, inoculating into 96-well tissue culture plates (3×10^3 cells per well) with 200 μL/well in 6 wells of each group, repeating twice, and then culturing at 37° C. in 5% CO2 saturated humidity incubator for 16 h. After adherent cells are apparent, removing the supernatant carefully and adding DMEM media. Meanwhile, the cells were incubated with different concentrations of arene ruthenium (II) complexes with a final concentration of 5, 10, 20, 40 and 80 μM respectively and maintain the total volume at 200 μL/well. Thereafter, the cells were cultured for 72 h. At the end of incubation, 20 μL/well of MTT solution (5 mg/mL) was added and incubated for 4 h. Removing the supernatant carefully and replaced with 150 μL/well of DMSO and oscillated for 10 mins to ensure complete dissolution of the formazan crystallization. The absorbance values were measured at 490 nm using a microplate reader. Cell viability was calculated according to the following formula: Cell viability (%)=A490 nm (cells in experimental group)/A490 nm (cells in control group)×100%
# According to the values of cell viability, calculating the inhibitory activities (IC50) of the target complex against MDA-MB-231 cells.
# [3] = system: nasopharyngeal carcinoma CNE-1 cancer cells; assay: MTT assay on nasopharyngeal carcinoma CNE-1 cells; type: cell-based; conditions: 72 h, 5-80 μM, read-out: The inhibitory effect IC50 on CNE-1 cancer cells
# Description: The Antiproliferative Activities of Arene Ruthenium (II) Complexes Against Nasopharyngeal Carcinoma CNE-1 Cancer Cells.
# as §1, with “complex against nasopharyngeal carcinoma CNE-1 cells were” for “complex against rat glioma C6 cells were”, “of the nasopharyngeal carcinoma CNE-1 cells in” for “of the rat glioma C6 cells in”, “80 μM respectively and maintain” for “80 μM respectively, and maintain”, “and incubated at 37° C. for 4” for “and incubated for 4”
# According to the values of cell viability, calculating the inhibitory activities (IC50) of the target complex against CNE-1 cancer cells.
# [4] = system: A549 lung adenocarcinoma cancer cells; assay: MTT assay on A549 lung adenocarcinoma cells; type: cell-based; conditions: 72 h, 5-80 μM, read-out: The inhibitory effect IC50 on A549 lung adenocarcinoma cancer cells
# Description: The Antiproliferative Activities of Arene Ruthenium (II) Complexes Against A549 Lung Adenocarcinoma Cancer Cells
# as §1, with “complex against A549 lung adenocarcinoma cells were” for “complex against rat glioma C6 cells were”, “MTT assay. Discarded the medium” for “MTT assay. Discarding the medium”, “of the A549 lung adenocarcinoma cells in” for “of the rat glioma C6 cells in”, “80 μM respectively and maintain” for “80 μM respectively, and maintain”, “and incubated at 37° C. for 4” for “and incubated for 4”
# According to the values of cell viability, calculating the inhibitory activities (IC50) of the target complex against A549 lung adenocarcinoma cancer cells.
# [5] = system: human esophageal carcinoma EC-1 cells; assay: MTT assay on human esophageal carcinoma EC-1 cells; type: cell-based; conditions: 72 h, 5-80 μM, read-out: The inhibitory effect IC50 on human esophageal carcinoma EC-1 cells
# Description: The Antiproliferative Activities of Arene Ruthenium (II) Complexes Against Human Esophageal Carcinoma EC-1 Cells.
# as §1, with “complex against human esophageal carcinoma EC-1 cells were” for “complex against rat glioma C6 cells were”, “medium of human esophageal carcinoma EC-1 cells in” for “medium of the rat glioma C6 cells in”, “with 200 µL/well in 6” for “with 200 μL/well in 6”, “80 μM respectively and maintain” for “80 μM respectively, and maintain”, “and incubated at 37° C. for 4” for “and incubated for 4”
# According to the values of cell viability, calculating the inhibitory activities (IC50) of the target complex against human esophageal carcinoma EC-1 cells.
# [6] = system: human epidermal HaCaT cells; assay: MTT assay on human epidermal HaCaT cells; type: cell-based; conditions: 72 h, 5-80 μM, normal epidermal cells, read-out: The inhibitory effect IC50 on human epidermal HaCaT cells
# Description: The Antiproliferative Activities of Arene Ruthenium (II) Complexes Against Human Epidermal HaCaT Cells.
# The antiproliferative effects of arene ruthenium (II) complex against human epidermal HaCaT cells were evaluated by MTT assay. Discarding the medium of human epidermal HaCaT cells in exponential growth phase and washing the cells twice with phosphate-buffered saline (PBS), dissociating into single cells by digesting with 1 mL trypsin. Adding fresh medium to dilute cell population to 1.5×10^4 cells/mL, inoculating into 96-well tissue culture plates (3×10^3 cells per well) with 200 μL/well in 6 wells of each group, repeating twice, and then culturing at 37° C. in 5% CO2 saturated humidity incubator for 16 h. After adherent cells are apparent, carefully removing the supernatant and adding DMEM media. Meanwhile, the cells were incubated with different concentrations of arene ruthenium (II) complexes with a final concentration of 5, 10, 20, 40 and 80 μM respectively and maintain the total volume at 200 µL/well. Thereafter, the cells were cultured for 72 h. At the end of incubation, 20 μL/well of MTT solution (5 mg/mL) was added and incubated at 37° C. for 4 h. Removing the supernatant carefully and replaced with 150 μL/well of DMSO and oscillated for 10 min to ensure complete dissolution of the formazan crystallization. The absorbance values were measured at 490 nm using a microplate reader. Cell viability was calculated according to the following formula: Cell viability (%)=A490 nm (cells in experimental group)/A490 nm (cells in control group)×100%
# According to the values of cell viability, calculating the inhibitory activities (IC50) of the target complex against human epidermal HaCaT cells.
# [7] = system: nasopharyngeal carcinoma cells; conditions: read-out: anti-proliferative activity IC50, nasopharyngeal carcinoma cells; cited from earlier work
# lung cancer cells = conditions: read-out: anti-proliferative activity IC50, lung cancer cells; cited from earlier work
# breast cancer cells = conditions: read-out: anti-proliferative activity IC50, breast cancer cells; cited from earlier work
# ovarian cancer cells = conditions: read-out: anti-proliferative activity IC50, ovarian cancer cells; cited from earlier work
# MDA-MB-231 cells = assay: Cell cycle analysis by flow cytometry (PI staining); type: cell-based; conditions: FIG. 75
# Description: After incubating with arene ruthenium (II) complex RAP07, the cell cycle arrest of MDA-MB-231 cells was analyzed with an Epics XL-MCL flow cytometer. The general method is: Trypsinizing the cells with trypsin, washing the cells with phosphate-buffered saline (PBS), and fixing the cells with 70% ethanol overnight at −20° C. Washing the fixed cells with phosphate-buffered saline (PBS) and staining with propidium iodide (PI) for 4 hours in the dark. Finally, the cell cycle arrest was analyzed using an Epics XL-MCL flow cytometer, cell cycle distribution was analyzed using MultiCycle software (Phoenix Flow Systems, San Diego, Calif.). The number of apoptotic cells with sub-diploid DNA were determined by measuring the […] in the cell cycle, every 10000 cells of each sample were recorded.
Compound,IC50 [2],IC50 [3],IC50 [5],IC50 [6],IC50 ([1]; 72 h),other results
"Cn1nnc2c(C(N)=O)ncn2c1=O [Temozolomide, reference compound]",,,,,,"IC50 ([1]; Rattus norvegicus, C6, 72 h): 259 ± 15.5 µM"
"N.N.[Cl][Pt][Cl] [cis-platin, reference compound]",17.8 ± 0.9 µM,19.1 ± 0.5 µM,9.4 ± 0.21 µM,17.1 ± 0.8 µM,,IC50 [4]: 93.1 ± 0.9 µM
[(η^6-p-cymene)Ru(C6H5-BzTSC)Cl]Cl,,,,,,IC50 [7]: 20 µM; IC50 (lung cancer cells): 31 µM; IC50 (breast cancer cells): 10 µM; IC50 (ovarian cancer cells): 34 µM
[(η^6-p-cymene)Ru(m-BrPIP)Cl]Cl [RAP062],9.2 ± 0.3 µM,15.7 ± 0.11 µM,,37.3 ± 1.99 µM,5.4 ± 0.17 µM,IC50 [4]: 6.59 ± 2.26 µM
[(η^6-p-cymene)Ru(m-ClPIP)Cl]Cl [RAP052],,,,,,IC50 [4]: 36.6 ± 0.67 µM
[(η^6-p-cymene)Ru(o-BrPIP)Cl]Cl [RAP061],,,,> 100 µM,,
[(η^6-p-cymene)Ru(o-OCH3PIP)Cl]Cl [RAP201],,17.4 ± 0.47 µM,,,,
[(η^6-p-cymene)Ru(p-BrPIP)Cl]Cl [RAP07],8.33 ± 0.6 µM,,18.1 ± 1.7 µM,,5.6 ± 0.2 µM,Cell cycle arrest of MDA-MB-231 cells (MDA-MB-231 cells): Induces the S-Phase Arrest
[(η^6-p-cymene)Ru(p-CF3PIP)Cl]Cl [RAP083],6.27 ± 0.29 µM,,6.9 ± 0.2 µM,> 100 µM,4.5 ± 0.07 µM,
[(η^6-p-cymene)Ru(p-CH3PIP)Cl]Cl [RAP273],9.6 ± 0.3 µM,,18.4 ± 11.7 µM,,,
[(η^6-p-cymene)Ru(p-FPIP)Cl]Cl [RAP04],,,18.2 ± 0.5 µM,,1.2 ± 0.3 µM,
[(η^6-p-cymene)Ru(p-IPIP)Cl]Cl [RAP073],3.2 ± 0.1 µM,3.3 ± 0.07 µM,,,,
[(η^6-p-cymene)Ru(p-N(CH3)2PIP)Cl]Cl [RAP093],6.4 ± 0.16 µM,11.9 ± 0.73 µM,,> 100 µM,5.6 ± 0.11 µM,
[(η^6-p-cymene)Ru(p-NO2PIP)Cl]Cl [RAP143],,,,,2.4 ± 0.05 µM,IC50 [4]: 11.8 ± 0.9 µM
